Measurements taken from ChEMBL document CHEMBL1201862, “PubChem BioAssay data set” (2004).
Values belong to the compound of their own block, whether it stands above or below them. Activity calls are given as the source filed them.

Columns and labels:
[1] = viability of uninfected HEp-2 cells – cell-based, HTS, cytotoxicity control for RSV inhibitor project, dose response (AID 2410); assay type: functional; conditions: human respiratory syncytial virus
[2] = target: T1, Heat shock factor protein 1 (Mus musculus, UniProt P38532); experiment: decrease of HSF1-responsive luciferase luminescence – cell-based, NIH3T3, dose retest, confirmation (AID 2382); assay type: functional;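 also: NIH3T3 fibroblasts with HSF1-driven luciferase reporter stressed by proteasome inhibitor MG132; luminescence from HSF1-driven luciferase expression after 8 hours of MG132 stress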
T1 sequence (P38532 whole entry): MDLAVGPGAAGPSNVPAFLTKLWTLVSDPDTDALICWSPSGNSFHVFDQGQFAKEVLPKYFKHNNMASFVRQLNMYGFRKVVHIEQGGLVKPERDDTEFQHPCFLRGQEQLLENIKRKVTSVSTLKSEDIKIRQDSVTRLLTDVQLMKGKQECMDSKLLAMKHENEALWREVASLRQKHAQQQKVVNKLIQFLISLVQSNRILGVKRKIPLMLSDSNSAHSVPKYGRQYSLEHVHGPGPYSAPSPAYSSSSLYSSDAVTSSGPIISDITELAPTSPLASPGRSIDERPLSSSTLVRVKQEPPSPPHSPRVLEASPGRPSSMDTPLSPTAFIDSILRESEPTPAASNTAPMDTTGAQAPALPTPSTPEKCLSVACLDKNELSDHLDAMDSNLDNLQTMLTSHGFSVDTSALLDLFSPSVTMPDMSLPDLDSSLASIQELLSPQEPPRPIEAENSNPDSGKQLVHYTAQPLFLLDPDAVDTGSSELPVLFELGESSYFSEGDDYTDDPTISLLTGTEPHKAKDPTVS

Cytochrome P450 3A4 = Cytochrome P450 3A4 (Homo sapiens, UniProt P08684);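 also: CYP3A4 tested as one member of a cytochrome P450 panel screen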
Chain of Cytochrome P450 3A4 (P08684 whole entry): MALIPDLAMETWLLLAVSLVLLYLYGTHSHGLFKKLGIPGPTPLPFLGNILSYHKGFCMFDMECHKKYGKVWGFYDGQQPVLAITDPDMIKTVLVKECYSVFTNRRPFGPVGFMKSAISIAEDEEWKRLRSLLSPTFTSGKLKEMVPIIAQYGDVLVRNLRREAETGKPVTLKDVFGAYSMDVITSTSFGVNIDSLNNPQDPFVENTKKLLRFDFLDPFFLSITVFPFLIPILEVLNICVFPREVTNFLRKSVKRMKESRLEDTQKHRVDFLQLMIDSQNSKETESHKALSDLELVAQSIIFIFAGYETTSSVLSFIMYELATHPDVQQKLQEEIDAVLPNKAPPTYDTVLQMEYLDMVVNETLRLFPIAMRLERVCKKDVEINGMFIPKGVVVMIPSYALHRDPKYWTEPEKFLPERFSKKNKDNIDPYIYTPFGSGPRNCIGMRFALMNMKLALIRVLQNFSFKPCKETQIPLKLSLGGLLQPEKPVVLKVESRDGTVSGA

[3] = Trypanosoma cruzi growth suppression in host cells – NIH3T3 host cells, beta-gal luminescence, confirmation (AID 2044); assay type: functional, cell-based;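 also: intracellular parasites grown in NIH/3T3 mouse fibroblasts as host cells; luminescent beta-galactosidase reporter signal from transgenic T. cruzi replicating inside host cells; inhibitors lower the luminescence signal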
[4] = NIH3T3 cell viability loss – ATP luminescence, mouse fibroblasts, counter-screen, dose response (AID 2010); assay type: functional, cell-based;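 also: cells exposed to compound for about 90 hours before reading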
Cytochrome P450 2C19 = Cytochrome P450 2C19 (Homo sapiens, UniProt P33261); experiment: Cytochrome panel assay with activity outcomes. Panel member name: p450-cyp2c19 Compounds with AC50 equal or less than 10 uM are considered active; assay type: functional
Chain of Cytochrome P450 2C19 (P33261 whole entry): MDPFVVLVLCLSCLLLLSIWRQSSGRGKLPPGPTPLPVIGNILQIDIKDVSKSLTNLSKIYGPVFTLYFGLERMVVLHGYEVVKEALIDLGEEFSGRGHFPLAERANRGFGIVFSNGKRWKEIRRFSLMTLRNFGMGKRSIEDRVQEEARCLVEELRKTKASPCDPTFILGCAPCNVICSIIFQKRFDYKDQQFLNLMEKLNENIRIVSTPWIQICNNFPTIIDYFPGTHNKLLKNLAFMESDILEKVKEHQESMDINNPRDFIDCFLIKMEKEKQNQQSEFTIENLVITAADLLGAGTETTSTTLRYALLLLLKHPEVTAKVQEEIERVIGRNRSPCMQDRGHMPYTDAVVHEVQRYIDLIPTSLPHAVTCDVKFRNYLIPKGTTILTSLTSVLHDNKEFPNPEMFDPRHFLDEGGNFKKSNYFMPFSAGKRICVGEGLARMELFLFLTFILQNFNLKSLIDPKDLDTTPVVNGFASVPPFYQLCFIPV

Cytochrome P450 1A2 = target: T2, Cytochrome P450 1A2 (Homo sapiens, UniProt P05177);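 also: PubChem cytochrome P450 panel assay, CYP1A2 panel member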
T2 sequence (P05177 whole entry): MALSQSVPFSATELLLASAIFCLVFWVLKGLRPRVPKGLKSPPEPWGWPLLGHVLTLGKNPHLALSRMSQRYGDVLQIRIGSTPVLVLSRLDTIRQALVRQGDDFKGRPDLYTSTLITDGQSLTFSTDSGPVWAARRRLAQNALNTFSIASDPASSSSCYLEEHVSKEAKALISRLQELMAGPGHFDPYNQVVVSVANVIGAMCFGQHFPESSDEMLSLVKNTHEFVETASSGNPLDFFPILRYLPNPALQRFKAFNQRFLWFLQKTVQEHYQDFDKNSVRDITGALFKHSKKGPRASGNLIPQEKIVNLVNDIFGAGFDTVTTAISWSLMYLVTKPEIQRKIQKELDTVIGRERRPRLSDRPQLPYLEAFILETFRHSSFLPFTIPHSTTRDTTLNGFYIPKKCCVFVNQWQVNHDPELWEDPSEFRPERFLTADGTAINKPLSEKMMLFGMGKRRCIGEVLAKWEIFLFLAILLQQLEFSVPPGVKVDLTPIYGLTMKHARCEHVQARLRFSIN

Cytochrome P450 2C9 = Cytochrome P450 2C9 (Homo sapiens, UniProt P11712)
Chain of Cytochrome P450 2C9 (P11712 whole entry): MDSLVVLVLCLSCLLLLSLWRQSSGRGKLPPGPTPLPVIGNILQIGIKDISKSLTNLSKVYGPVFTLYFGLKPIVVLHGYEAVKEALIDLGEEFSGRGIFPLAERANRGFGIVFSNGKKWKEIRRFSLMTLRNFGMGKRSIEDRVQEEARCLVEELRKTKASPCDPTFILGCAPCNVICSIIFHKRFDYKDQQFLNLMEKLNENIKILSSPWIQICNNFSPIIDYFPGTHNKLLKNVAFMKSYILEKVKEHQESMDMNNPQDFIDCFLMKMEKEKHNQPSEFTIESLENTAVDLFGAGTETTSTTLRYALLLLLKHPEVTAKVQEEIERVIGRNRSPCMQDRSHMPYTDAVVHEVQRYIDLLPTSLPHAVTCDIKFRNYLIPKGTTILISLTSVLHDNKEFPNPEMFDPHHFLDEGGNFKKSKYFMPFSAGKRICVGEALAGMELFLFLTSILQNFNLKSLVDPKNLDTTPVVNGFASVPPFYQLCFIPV

[5] = target: T3, Corticotropin-releasing factor receptor 2/Corticotropin-releasing factor-binding protein (Homo sapiens, UniProt P24387+Q13324); experiment: activators of CRF receptor 2 with binding protein – uHTS hits, confirmation (AID 602473); assay type: functional; conditions: read-out: EC50_Mean
T3 sequence (Q13324 whole entry): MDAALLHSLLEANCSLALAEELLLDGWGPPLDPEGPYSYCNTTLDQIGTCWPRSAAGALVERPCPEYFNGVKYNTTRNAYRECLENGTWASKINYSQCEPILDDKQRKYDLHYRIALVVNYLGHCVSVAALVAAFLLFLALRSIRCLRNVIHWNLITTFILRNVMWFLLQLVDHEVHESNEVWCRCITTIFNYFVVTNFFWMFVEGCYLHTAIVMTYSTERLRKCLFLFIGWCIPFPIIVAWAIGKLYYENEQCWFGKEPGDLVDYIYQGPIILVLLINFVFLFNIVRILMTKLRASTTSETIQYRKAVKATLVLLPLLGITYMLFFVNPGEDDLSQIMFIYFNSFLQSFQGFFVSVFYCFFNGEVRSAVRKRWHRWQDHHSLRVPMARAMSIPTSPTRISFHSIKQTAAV
T3 sequence (P24387 whole entry): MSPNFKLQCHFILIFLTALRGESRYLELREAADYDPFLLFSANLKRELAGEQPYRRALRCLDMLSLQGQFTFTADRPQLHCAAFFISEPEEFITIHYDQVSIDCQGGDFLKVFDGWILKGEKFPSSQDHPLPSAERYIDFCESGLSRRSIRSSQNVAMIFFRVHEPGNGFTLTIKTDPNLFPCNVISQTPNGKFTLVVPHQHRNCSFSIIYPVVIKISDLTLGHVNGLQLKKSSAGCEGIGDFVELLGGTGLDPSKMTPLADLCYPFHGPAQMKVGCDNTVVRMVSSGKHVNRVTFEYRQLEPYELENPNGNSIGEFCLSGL

Cytochrome P450 2D6 = Cytochrome P450 2D6 (Homo sapiens, UniProt P10635);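 also: CYP2D6 member of a cytochrome P450 panel assay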
Chain of Cytochrome P450 2D6 (P10635 whole entry): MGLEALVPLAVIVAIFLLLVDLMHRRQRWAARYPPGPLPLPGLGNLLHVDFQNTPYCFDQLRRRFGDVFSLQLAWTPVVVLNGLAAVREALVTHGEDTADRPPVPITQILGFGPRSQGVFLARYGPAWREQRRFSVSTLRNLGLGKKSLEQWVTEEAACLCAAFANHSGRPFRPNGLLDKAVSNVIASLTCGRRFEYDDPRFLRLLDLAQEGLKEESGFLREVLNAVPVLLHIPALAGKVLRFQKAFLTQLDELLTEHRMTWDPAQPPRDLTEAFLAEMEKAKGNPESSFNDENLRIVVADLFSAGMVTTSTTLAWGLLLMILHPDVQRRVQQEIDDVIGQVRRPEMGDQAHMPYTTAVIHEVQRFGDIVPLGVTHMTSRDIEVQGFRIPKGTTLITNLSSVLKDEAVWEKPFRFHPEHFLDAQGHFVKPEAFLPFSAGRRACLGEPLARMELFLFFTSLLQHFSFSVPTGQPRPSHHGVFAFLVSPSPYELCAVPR

[6] = Luminescence Cell-Based Dose Retest to Confirm Inhibitors of Cancer Stem Cells. [Related pubchem assays (depositor defined):AID2717, AID2721]; assay type: functional; conditions: Homo sapiens

SMILES: O=S(=O)(NC1CC1)c1ccc(S(=O)(=O)N2CCC(c3nc(O)c4nnn(Cc5cccc(F)c5)c4n3)CC2)cc1
CC50 [1]: 24.8 µM (active)

EC50 [2]: > 195 µM (not active)
SMILES: CCOC(=O)c1nnn(CC(=O)NC(=O)Nc2ccc(F)cc2)c1C(=O)OCC

SMILES: COc1cc(OC)c(C(=O)Nc2ccccc2-c2ccccc2)cc1OC
CC50 [1]: 18.9 µM (active)

AC50 (Cytochrome P450 3A4): 3.98 µM (inconclusive)
SMILES: N#Cc1nc(-c2ccc(OCc3ccccc3)cc2)oc1NCCN1CCOCC1

SMILES: CCOC(=O)C1=C(N)Oc2cc(O)ccc2C1c1ccc([N+](=O)[O-])cc1 (centres undefined)
CC50 [1]: 16.9 µM (active) | EC50 [3]: 659 nM (active) | EC50 [4]: > 60 µM (not active)

EC50 [2]: > 195 µM (not active)
SMILES: CCc1ccc(/C=C2\Oc3cc(OC(=O)N4CCOCC4)ccc3C2=O)cc1

AC50 (Cytochrome P450 2C19): 7.94 µM (inconclusive) | AC50 (Cytochrome P450 1A2): 5.01 µM (inconclusive) | AC50 (Cytochrome P450 2C9): 5.01 µM (inconclusive)
SMILES: C[C@H]1C[C@@H]2[C@H]3CCC4=CC(=O)C=C[C@@]4(C)[C@@]3(Cl)[C@@H](O)C[C@]2(C)[C@]1(OC(=O)c1ccco1)C(=O)CCl

SMILES: COc1ccc(NC(=O)N2CC[C@@]3(CCCN(C(=O)Oc4ccccc4)C3)C2)cc1
AC50 (Cytochrome P450 2C19): 15.8 µM (inconclusive) | AC50 (Cytochrome P450 3A4): 39.8 µM (inconclusive) | AC50 (Cytochrome P450 2C9): 25.1 µM (inconclusive)

EC50 [5]: 4.51 µM (active)
SMILES: Cc1ccc(C(C)C)c2c1C(c1ccc3c(c1)OCO3)CC(=O)O2 (centres undefined)

AC50 (Cytochrome P450 3A4): 0.0251 µM (inconclusive) | AC50 (Cytochrome P450 2C9): 25.1 µM (inconclusive)
SMILES: Cn1c(=O)c(CCc2ccccc2)nc2cnc(N3CCNCC3)nc21

SMILES: S=C(c1ccc(-c2ccc(Br)cc2)o1)N1CCCCC1
CC50 [1]: 29.3 µM (active)

AC50 (Cytochrome P450 2D6): 14.1 µM (inconclusive) | AC50 (Cytochrome P450 3A4): 22.4 µM (inconclusive)
SMILES: CSc1cccc(NC(=O)Cn2cccc2)c1

EC50 [2]: > 195 µM (not active)
SMILES: CCOc1ccc(N(CC(=O)NC2CCCCC2)C(=O)CCC(=O)Nc2nc(C)cs2)cc1

SMILES: Cc1nn(C)c(Cl)c1CN1CCCC(CO)(Cc2cccc(Cl)c2)C1 (centres undefined)
CC50 [1]: 43.6 µM (active)

EC50 [2]: > 195 µM (not active)
SMILES: CCOc1ccc2ccccc2c1CNc1nnnn1CC

AC50 (Cytochrome P450 1A2): 12.6 µM (inconclusive) | AC50 (Cytochrome P450 3A4): 15.8 µM (inconclusive)
SMILES: O=C(Nc1cccc(F)c1)N1CC[C@@]2(CCCN(C(=O)c3cccc(F)c3)C2)C1

AC50 (Cytochrome P450 3A4): 15.8 µM (inconclusive)
SMILES: N#Cc1cccc(NC(=O)N2CCCC3(CCN(C(=O)c4csnn4)CC3)C2)c1

AC50 (Cytochrome P450 2C19): 0.0708 µM (inconclusive)
SMILES: Cc1cc(C(=O)C(=O)NC(C)C)c(C)n1-c1ccc([N+](=O)[O-])cc1

AC50 (Cytochrome P450 2C19): 31.6 µM (inconclusive)
SMILES: CCC(CC)C(=O)NCCN1CCN(C(=O)C(CC)CC)CC1

SMILES: Cc1cccc(N2CCN(C(=O)Cc3ccc(-n4c(=O)[nH]c5ccsc5c4=O)cc3)CC2)c1C
CC50 [1]: 30.2 µM (active)

EC50 [2]: > 195 µM (not active)
SMILES: CCOCCCNC(=O)c1cc(C)nn1-c1ccccc1

AC50 (Cytochrome P450 3A4): 31.6 µM (inconclusive)
SMILES: COCCn1c(=O)c(-c2ccccc2)nc2cnc(Oc3ccccc3)nc21

SMILES: CCOc1ccc(S(=O)(=O)N2CCN(C(=O)c3cc(-c4ccccc4)nn3-c3ccccc3)CC2)cc1
CC50 [1]: 48 µM (active)

SMILES: Cc1ccc(-c2nc3ccccc3c(=O)n2-c2ncccc2C)cc1
AC50 (Cytochrome P450 2C19): 28.2 µM (inconclusive) | AC50 (Cytochrome P450 2C9): 17.8 µM (inconclusive)

SMILES: COc1ccc2c(c1)OC[C@H]1[C@H]2N2C(=O)CN(Cc3ccc(Cl)cc3)C(=O)[C@@]2(C)[C@H]1c1ccccc1
CC50 [1]: 14.7 µM (active)

AC50 (Cytochrome P450 2C19): 3.55 µM (inconclusive)
SMILES: CCOc1ccc(NC(=O)c2nnn(CC(=O)Nc3ccccc3OC)c2N)cc1

EC50 [2]: > 195 µM (not active)
SMILES: Cc1noc(/C=C/N(C)C)c1S(=O)(=O)N1CCN(c2ccc(F)cc2)CC1

AC50 (Cytochrome P450 3A4): 14.1 µM (inconclusive)
SMILES: CC1=CC(=C2C(=O)c3ccccc3C2=O)C=C(C)O1

EC50 [5]: 6.78 µM (active)
SMILES: CSCCC(NC(=O)c1ccco1)C(=O)N1CC=C(c2ccccc2)CC1 (centres undefined)

AC50 (Cytochrome P450 2C19): 15.8 µM (inconclusive) | AC50 (Cytochrome P450 1A2): 28.2 µM (inconclusive) | AC50 (Cytochrome P450 2C9): 0.0794 µM (inconclusive)
SMILES: CC1(C)CC(=O)C2=C(C1)N(Cc1cccnc1)C(=O)C2(NC(=O)c1cccnc1)C(F)(F)F (centres undefined)

EC50 [2]: > 195 µM (not active)
SMILES: CCCCn1c(N)nc2ccccc21

AC50 (Cytochrome P450 3A4): 3.98 µM (inconclusive) | AC50 (Cytochrome P450 2C9): 3.16 µM (inconclusive)
SMILES: CC(=O)OC[C@@H]1O[C@H](CCO/N=C(\C)CCN2CCc3nc(-c4ccccc4)c(-c4ccccc4)cc3C2)C=C[C@@H]1OC(C)=O

SMILES: COc1ccc(-c2csc(-c3cccnc3)n2)cc1C
CC50 [1]: 38.8 µM (active)

AC50 (Cytochrome P450 1A2): 3.55 µM (inconclusive) | AC50 (Cytochrome P450 3A4): 14.1 µM (inconclusive)
SMILES: CC1(C(=O)CSc2nc3ccccc3s2)CCC(=O)O1 (centres undefined)

AC50 (Cytochrome P450 2C19): 20 µM (inconclusive) | AC50 (Cytochrome P450 2D6): 31.6 µM (inconclusive) | AC50 (Cytochrome P450 1A2): 10 µM (inconclusive) | AC50 (Cytochrome P450 2C9): 31.6 µM (inconclusive)
SMILES: CCNc1ncc2nc(-c3cccs3)c(=O)n(Cc3ccc(F)cc3)c2n1

AC50 (Cytochrome P450 2D6): 25.1 µM (inconclusive) | AC50 (Cytochrome P450 3A4): 15.8 µM (inconclusive) | AC50 (Cytochrome P450 2C9): 15.8 µM (inconclusive)
SMILES: CCNc1ncc2ncc(=O)n(CCc3ccccc3)c2n1

EC50 [2]: > 195 µM (not active)
SMILES: Cc1ccc(N(CC(=O)NC2CCCCC2)C(=O)CNC(=O)c2ccco2)c(C)c1

AC50 (Cytochrome P450 2C19): 20 µM (inconclusive) | AC50 (Cytochrome P450 2C9): 28.2 µM (inconclusive)
SMILES: COc1ccc(NC(=O)N2CCCC2C(=O)Nc2ccccc2)cc1 (centres undefined)

AC50 (Cytochrome P450 1A2): 14.1 µM (inconclusive) | AC50 (Cytochrome P450 3A4): 22.4 µM (inconclusive)
SMILES: COC(=O)C(NC(=O)c1ccccc1)=C1C=C(C)OC(C)=C1

EC50 [5]: > 53 µM (inactive)
SMILES: Cc1ccc(C(=O)NCCNC(=O)c2ccc(F)cc2)cn1

AC50 (Cytochrome P450 2C19): 11.2 µM (inconclusive) | AC50 (Cytochrome P450 3A4): 22.4 µM (inconclusive)
SMILES: C/C(=N\O)c1ccc2[nH]ccc2c1

SMILES: Cc1nn(-c2ccccc2)c(N2CCCCC2)c1/C=N/O
AC50 [6]: 3.97 µM (active) | AC50 (Cytochrome P450 3A4): 14.1 µM (inconclusive) | AC50 (Cytochrome P450 2C9): 7.08 µM (inconclusive)

AC50 (Cytochrome P450 2C19): 39.8 µM (inconclusive) | AC50 (Cytochrome P450 2C9): 14.1 µM (inconclusive)
SMILES: COC(=O)C1C(O)=C(/C=N/Cc2ccccc2)C(=O)CC1(C)C (centres undefined)

SMILES: COc1c(CC=C(C)C)c(O)cc2oc(=O)c3c4ccc(O)cc4oc3c12 [GLYCYROL]
CC50 [1]: 26.5 µM (active)
